Patent US12403144B2, “HECT E3 ligase inhibitors and uses thereof” (IFOM FONDAZIONE ISTITUTO FIRC DI ONCOLOGIA MOLECOLARE, priority 2019, dated 2025)
Structures can show the parent of a compound that is named as a salt.

Biological target: T1, untagged HECT of NEDD4 wild-type (WT) (E3 ligase) (Homo sapiens, UniProt P46934)
T1 construct: untagged HECT of NEDD4 wild-type (WT) (E3 ligase); made in house
T1 sequence (P46934 519-900 isoform P46934-4 limits assumed): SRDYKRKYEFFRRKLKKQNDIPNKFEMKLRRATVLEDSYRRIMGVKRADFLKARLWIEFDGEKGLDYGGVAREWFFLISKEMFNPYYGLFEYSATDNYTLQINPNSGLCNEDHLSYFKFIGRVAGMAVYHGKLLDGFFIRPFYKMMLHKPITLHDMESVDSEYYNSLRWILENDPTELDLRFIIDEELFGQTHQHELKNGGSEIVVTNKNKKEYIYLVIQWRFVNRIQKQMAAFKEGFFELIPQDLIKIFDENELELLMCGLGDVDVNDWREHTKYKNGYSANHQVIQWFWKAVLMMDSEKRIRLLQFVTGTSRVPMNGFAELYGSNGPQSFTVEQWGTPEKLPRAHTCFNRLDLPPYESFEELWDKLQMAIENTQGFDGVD
Experiment: In vitro ubiquitination assay TR-FRET based (self-ubiquitination of NEDD4)
Format: biochemical
Settings: at 11 μM; pre-incubated for 1 hour; AUC of 120 minutes kinetic; read-out: percentages of inhibition (NEDD4)
From the text: FIG. 1: TR-FRET kinetic assay performed with compound 12. […] Reactions were initiated with the addition of ATP. As labeled ubiquitin molecules become incorporated into chains they come into close proximity, resulting in energy transfer and increased signal to background detection. The activity of the enzyme is continuously and real time detected and it is expressed as % of signal/background during the time.
In order to quantitatively measure the self-ubiquitination process of the E3 HECT ligase NEDD4 the inventors employed a TR-FRET based assay. TR-FRET technology exploits the long-lasting emission of lanthanide fluorescence to interpose a short time-delay between FRET donor excitation and emission. This phenomenon enables to isolate real fluorescent signals from short-lived background emissions, thus reducing possible interference from compounds.
In the present study, elongation of the ubiqutin chain by NEDD4 is measured by adding bacterially expressed E1, His-tagged UBE2D3 (E2) and untagged HECT of NEDD4 wild-type (WT) (E3 ligase) (named in FIG. 1 as WT) enzymes to a mixture of Eu-cryptate ubiquitin, Cy5-ubiquitin and wild-type ubiquitin, combined in a ratio optimized for TR-FRET based conjugation (100×TRF-Ubiquitin Mix, SBB-TR0051). […] Bacterially expressed E1, His-tagged UBE2D3 (E2), untagged HECT NEDD4 (E3 ligase) WT and NEDD4 C/A enzymes were produced and purified as reported in E. Maspero et al. Methods Mol Biol. 1449:153-60 (2016).
Enzymatic incorporation of the labeled TRF-Ubiquitin mix into chains leads to an increase in fluorescence emission at 665 nm (emission of the acceptor Cy5-Ubiquitin, Emacceptor) and decrease at emission wavelength 620 nm (emission of the donor Eu-cryptate Ubiquitin, Emdonor).
The assay was performed in a 384-well plate format (Optiplate, Perkin Elmer, #6007290) on an automated liquid-handler (Hamilton STAR, Hamilton Robotics, Switzerland).
All compounds were dissolved in 100% DMSO and serially diluted in 96-well plates (from 100 μM to 0.005 μM).
Briefly, all reagents were thawed and kept on ice. A master mix containing E1, E2, E3 and TRF-Ubiquitin Mix (SBB-TR0051) diluted in the assay buffer (Tris-HCl pH 7.6 25 mM, NaCl 100 mM, MgCl2 5 mM and Tween 0.01%) is prepared and 50 μl/well is dispensed in a 384 well plate. 3 μl of compounds dissolved in DMSO in the above-indicated concentration range were added and pre-incubated for 1 hour. Final E1, E2 and E3 concentrations in the assay buffer (Tris-HCl pH 7.6 25 mM, NaCl 100 mM, MgCl2 5 mM and Tween 0.01%) were 30, 350 and 50 nanomolars, respectively. The reaction was initiated with the addition of ATP (22 μl of 2 mM ATP, JenaBioscience, NU-1010) and was allowed to proceed for 120 minutes, measuring fluorescence emission at 665 nm and 620 nm in real-time on an EnSpire microplate reader (Perkin Elmer).
Kinetic raw data were analyzed by Area Under the Curve (AUC) method using Prism GraphPad software.
% signal/background corresponds to the following equation: (Experimental signal−Background signal)/Background signal×100%
Experimental signal corresponds to the signal obtained by the enzymatic reaction in presence of the vehicle (DMSO) and/or the different compound concentrations. Background signal corresponds to the signal obtained by the enzymatic reaction in absence of ATP.
The relative potency of the compounds was evaluated by dose-response curves following the enzymatic reaction of HECT NEDD4 WT in real time for 120 minutes.
Percentage of inhibition is then determined by the equation: % inhibition=100×[1−(X)/(MAX)],
where MAX correspond to AUC of the vehicle (DMSO) treated enzyme, and X corresponds to the AUC of the compound treated enzyme.

inhibition at 11 µM [%] | Structure (SMILES)
< 30 | CCOC(=O)/C=C/CNCCCN1c2cc(Cl)ccc2CCc2cn(C)nc21 [Compound 31]
> 50 | CCOC(=O)/C=C/CNCCCCN1c2cc(Cl)ccc2NC(=O)c2ccccc21 [Compound 41, Ethyl (E)-4-{[4-(7-chloro-11-oxo-10,11-dihydro-5H-dibenzo[b,e][1,4]diazepin-5-yl)butyl]amino}but-2-enoate maleate]
30 to 50 | CNC(=O)/C=C/CNCCCCN1c2ccccc2CCc2ccc(Cl)cc21 [Compound 66, (E)-4-{[4-(3-chloro-10,11-dihydro-5H-dibenzo[b,f]azepin-5-yl)butyl]amino}-N-methyl-but-2-enamide hydrochloride]
> 50 | CCOC(=O)/C=C/CNCCCN1c2ccccc2CCc2ccc([N+](=O)[O-])cc21 [Compound 14, Ethyl (E)-4-[3-(3-nitro-10,11-dihydro-5H-dibenzo[b,f]azepin-5-yl)propylamino]but-2-enoate maleate]
> 50 | CCOC(=O)/C=C/CNCCCN1c2ccccc2CCc2ccc(Cl)cc21 [Compound 4, Ethyl (E)-4-[3-(3-chloro-10,11-dihydro-5H-dibenzo[b,f]azepin-5-yl)propylamino]but-2-enoate fumarate]
> 50 | CCOC(=O)/C=C/CNCCCCN1c2cc(Cl)ccc2COc2ccccc21 [Compound 36, Ethyl (E)-4-{4-[3-chlorodibenzo[b,e][1,4]oxazepin-5(11H)-yl]butylamino}but-2-enoate maleate]
> 50 | CCOC(=O)/C=C/CNCCCCN1c2cc(Cl)ccc2C(=O)N(CCO)c2ccccc21 [Compound 46, Ethyl (E)-4-({4-[3-chloro-10-(2-hydroxyethyl)-11-oxo-10,11-dihydro-5H-dibenzo[b,e][1,4]diazepin-5-yl]butyl}amino)but-2-enoate maleate]
> 50 | CCOC(=O)/C=C/CNCCCCN1c2ccccc2COc2ccc(Cl)cc21 [Compound 37, Ethyl (E)-4-{4-[7-chlorodibenzo[b,e][1,4]oxazepin-5(11H)-yl]butylamino}but-2-enoate maleate]
> 50 | CCOC(=O)/C=C/CNCCCCN1c2ccccc2C(=O)N(CCO)c2ccc(Cl)cc21 [Compound 50, Ethyl (E)-4-({4-[7-chloro-10-(2-hydroxyethyl)-11-oxo-10,11-dihydro-5H-dibenzo[b,e][1,4]diazepin-5-yl]butyl}amino)but-2-enoate maleate]
> 50 | CC(C)ONC(=O)/C=C/CNCCCCN1c2ccccc2CCc2ccc(Cl)cc21 [Compound 81, (E)-4-[4-(3-chloro-10,11-dihydro-5H-dibenzo[b,f]azepin-5-yl)butylamino]-N-isopropoxy-but-2-enamide maleate]
> 50 | CCOC(=O)/C=C/CNCCCN1c2ccccc2CCc2ccc(Br)cc21 [Compound 15, Ethyl (E)-4-[3-(3-bromo-10,11-dihydro-5H-dibenzo[b,f]azepin-5-yl)propylamino]but-2-enoate maleate]
> 50 | CCOC(=O)/C=C/CNCCCN1c2cc(Cl)ccc2C(=O)N(CCO)c2ccccc21 [Compound 47, Ethyl (E)-4-({3-[3-chloro-10-(2-hydroxyethyl)-11-oxo-10,11-dihydro-5H-dibenzo[b,e][1,4]diazepin-5-yl]propyl}amino)but-2-enoate maleate]
30 to 50 | CCOC(=O)/C=C/CNCCCN1c2ccccc2NC(=O)c2ccc(Cl)cc21 [Compound 23, Ethyl (E)-4-{[3-(3-chloro-11-oxo-10,11-dihydro-5H-dibenzo[b,e][1,4]diazepin-5-yl)propyl]amino}but-2-enoate maleate]

The next lines start with the molecule.

Structure (SMILES) | inhibition at 11 µM [%]
CC(=O)/C=C/CN(C)CCCCN1c2cc(Cl)ccc2C(=O)N(Cc2ccccc2)c2ccccc21 [Compound 60, 10-Benzyl-3-chloro-5-(4-{methyl[(E)-4-oxo-pent-2-en-1-yl]amino}butyl)-5,10-dihydro-11H-dibenzo[b,e][1,4]diazepin-11-one maleate] | > 50
CN(C/C=C/C#N)CCCCN1c2ccc(OCCOCc3cn(CCOCCOCCOCCNC(=O)CCCC[C@@H]4SC[C@@H]5NC(=O)N[C@@H]54)nn3)cc2CCc2ccc(Cl)cc21 [Compound 99, 5-((3aS,4S,6aR)-2-Oxo-hexahydro-thieno[3,4-d]imidazol-4-yl)-(2-{2-[2-(2-{4-[2-(7-chloro-5-{4-[((E)-3-cyano-allyl)-methyl-amino]-butyl}-10,11-dihydro-5H-dibenzo[b,f]azepin-2-yloxy)-ethoxymethyl]-[1,2,3]triazol-1-yl}-ethoxy)-ethoxy]-ethoxy}-ethyl)pentanamide] | > 50
O=C(/C=C/CNCCCN1c2ccccc2CCc2ccc(Cl)cc21)Nc1ccccc1 [Compound 21, (E)-4-{[3-(3-chloro-10,11-dihydro-5H-dibenzo[b,f]azepin-5-yl)propyl]amino}-N-phenyl-but-2-enamide hydrochloride] | < 30
CCOC(=O)/C=C/CNCCCCN1c2ccccc2C(=O)N(CCCO)c2ccc(Cl)cc21 [Compound 51, Ethyl (E)-4-({4-[7-chloro-10-(3-hydroxypropyl)-11-oxo-10,11-dihydro-5H-dibenzo[b,e][1,4]diazepin-5-yl]butyl}amino)but-2-enoate maleate] | > 50
CN(C/C=C/C#N)CCCCN1c2ccccc2CCc2ccc(Cl)cc21 [Compound 73, (E)-4-[4-(3-Chloro-10,11-dihydro-5H-dibenzo[b,f]azepin-5-yl)butyl-methyl-amino]but-2-enenitrile maleate] | > 50
C#CCOCCOc1ccc2c(c1)CCc1ccc(Cl)cc1N2CCCCN(C)C/C=C/C#N [Compound 90, (E)-4-{4-[7-chloro-2-(2-prop-2-ynoxyethoxy)-10,11-dihydro-5H-dibenzo[b,f]azepin-5-yl]butyl-methyl-amino}but-2-enenitrile maleate] | > 50
CC(=O)/C=C/CN(C)CCCN1c2ccccc2CCc2ccc(Cl)cc21 [Compound 7, (E)-5-[3-(3-chloro-10,11-dihydro-5H-dibenzo[b,f]azepin-5-yl)propyl-methyl-amino]pent-3-en-2-one maleate] | > 50
O=C(/C=C/CNCCCCN1c2ccccc2CCc2ccc(Cl)cc21)NOCc1ccccc1 [Compound 79, (E)-4-[4-(3-chloro-10,11-dihydro-5H-dibenzo[b,f]azepin-5-yl)butylamino]-N-benzyloxy-but-2-enamide maleate] | > 50
COC(=O)/C=C/CN(C)CCCCN1c2cc(Cl)ccc2COc2ccccc21 [Compound 68, Methyl (E)-4-[4-(3-chlorodibenzo[b,e][1,4]oxazepin-5(11H)-yl)butyl-methyl-amino]but-2-enoate] | > 50
CCOC(=O)/C=C/CNCCCN1c2ccccc2COc2ccc(C(F)(F)F)cc21 [Compound 3, Ethyl (E)-4-{3-[7-(trifluoromethyl)dibenzo[b,e][1,4]oxazepin-5(11H)-yl]propylamino}but-2-enoate maleate] | 30 to 50
